Laboratory results published in US4689321A, “Oxo propenyl nucleosides and nucleoside related analogs” (The Research Foundation of State University of New York, priority 1984, dated 1987).

Key:
murine leukemia = murine leukemia model, ascites cells implanted i.p. in mice (Table I); format: in vivo, murine (CFD1+ mice); details: for Effect MST % T/C: >125 considered significant; for MST (median survival time): control 6.5
Text: Tumor Inoculum: 10^6 ascites cells implanted i.p.
Evaluation: MST = median survival time
Effect: % T/C = (MST treated/MST control) × 100.

L-1210 Leukemia = experiment: tumor cell growth in culture, L-1210 Leukemia; format: cell-based; details: Mus musculus, L1210, testing at Roswell Park Memorial Institute
Text: (§1) on Tumor Cell Growth in Culture
(§2) ^a Testing performed at Roswell Park Memorial Institute. See proposal
(§3) for methodology and references.

Lewis lung carcinoma = experiment: tumor cell growth in culture, Lewis lung carcinoma; format: cell-based; details: testing at Roswell Park Memorial Institute
Text: as §1, §2, §3

B-16 melanoma = experiment: tumor cell growth in culture, B-16 melanoma; format: cell-based; details: Mus musculus, B16, testing at Roswell Park Memorial Institute
Text: as §1, §2, §3

[1] = system: DLD-1 human colon carcinoma; experiment: tumor cell growth in culture, DLD-1 human colon carcinoma; format: cell-based; details: testing at Brown University
Text: as §1
^b Testing performed at Brown University. Cell lines and methodology

[2] = system: DNA synthesis in HeLa cells; experiment: inhibition of DNA synthesis in HeLa cells; format: cell-based; details: Homo sapiens, 1 h, 60 min
Method: (§4) Effects of Inhibitors on Synthesis of DNA and TTP in HeLa Cells
^a Measured, over a period of 60 min., as described in the Legend to […]

[3] = system: TTP formation in HeLa cells; experiment: inhibition of TTP formation in HeLa cells; format: cell-based; details: Homo sapiens, 0.5 h, 30 min
Method: as §4
^b HeLa cells were suspended for 30 min. in 2 ml. of minimal essentia
media containing 25 uCi of ^3 H--thymidine. Cells were lysed, carrier
nucleotides added and ^3 H--TTP isolated by thin layer chromatography

DNA synthesis = experiment: cytotoxicity and effect on DNA, RNA and protein synthesis (Fig. I); format: cell-based
[4] = 2 mg/kg/inj IP, schedule qd 1 5
[5] = 4 mg/kg/inj IP, schedule qd 1 5
[6] = 8 mg/kg/inj IP, schedule qd 1 5
[7] = 16 mg/kg/inj IP, schedule qd 1 5

Cc1cn([C@H]2C[C@H](O)[C@@H](CO)O2)c(=O)n(C=CC=O)c1=O [XX-336, 3-(thymidin-3-yl)-prop-2-enal]
Effect MST % T/C (murine leukemia; [4]): 123% | MST (median survival time) (murine leukemia; [4]): 8.0 days | Effect MST % T/C (murine leukemia; [5]): 123% | MST (median survival time) (murine leukemia; [5]): 8.0 days | Effect MST % T/C (murine leukemia; 8 mg/kg/inj IP, schedule d.1): 154% | MST (median survival time) (murine leukemia; 8 mg/kg/inj IP, schedule d.1): 10.0 days | Effect MST % T/C (murine leukemia; [6]): 146% | MST (median survival time) (murine leukemia; [6]): 9.5 days | Effect MST % T/C (murine leukemia; 16 mg/kg/inj IP, schedule d.1): 131% | MST (median survival time) (murine leukemia; 16 mg/kg/inj IP, schedule d.1): 8.5 days | Effect MST % T/C (murine leukemia; [7]): 146% | MST (median survival time) (murine leukemia; [7]): 9.5 days | Effect MST % T/C (murine leukemia; 32 mg/kg/inj IP, schedule d.1): 123% | MST (median survival time) (murine leukemia; 32 mg/kg/inj IP, schedule d.1): 8.0 days | IC50 (L-1210 Leukemia): 1.6 µM | IC50 (Lewis lung carcinoma): 5.9 µM | IC50 (B-16 melanoma): 4.2 µM | IC50 [1]: 5 µM | inhibition at 0.1 µM ([2]; 0.1 μM): 6% | inhibition at 0.3 µM ([2]; 0.3 μM): 38% | inhibition at 1 µM ([2]; 1.0 μM): 70% | inhibition at 2 µM ([2]; 2.0 μM): 88% | inhibition at 20 µM ([2]; 20.0 μM): 100% | inhibition at 0.1 µM ([3]; 0.1 μM): 6% | inhibition at 0.3 µM ([3]; 0.3 μM): 50% | inhibition at 1 µM ([3]; 1.0 μM): 75% | inhibition at 2 µM ([3]; 2.0 μM): 85% | inhibition at 20 µM ([3]; 20.0 μM): 95% | cytotoxicity associated with inhibition of DNA synthesis (DNA synthesis): associated dominantly with the inhibition of DNA synthesis
